Data published in patent US10369130B2, “Antibacterial compounds” (AZIENDE CHIMICHE RIUNITE ANGELINI FRANCESCO A.C.R.A.F. …, priority 2014, dated 2019).
Where a name gives a salt, the structure may show the parent alone.

Tests used:
Assay type in all cases: biochemical
Conditions in all cases: single concentration (200, 100 or 50 μM), in duplicate, versus the positive control (vehicle)
DNA gyrase [1] = target: T1, DNA gyrase (Escherichia coli, UniProt P0AES4+P0AES6); assay: DNA gyrase supercoiling assay (E. coli)
T1 construct: purchased Inspiralis, UK
Experimental: (§1) The above compounds were tested for the inhibition of the enzyme DNA gyrase in a gyrase supercoiling assay and for the inhibition of the enzyme topoisomerase IV in a decatenation assay, in both Gram positive and Gram negative bacteria, according to the following methods.
(§2) Both the assays were carried out according to a set-up method modified from the article to Blanche F, et al. “Differential Behaviors of Staphylococcus aureus and Escherichia coli Type II DNA Topoisomerases”, Antimicrob.
(§3) The compounds were screened at single concentration (200, 100 or 50 μM), in duplicate.
(§4) Ciprofloxacin and novobiocin were used as reference compounds, at single concentration of 200 and 50 μM, respectively.
(§5) DNA Gyrase Supercoiling Assay.
(§6) Reagents from S. aureus and E. coli Gyrase Supercoiling Assay kits (Inspiralis, UK) were used. A master mix with a total volume sufficient for the number of reactions to perform was prepared with the following reagents: 5× assay buffer, relaxed pBR322 substrate (0.5 μg/reaction), RNase-DNase free water. Aliquotes of this mix were dispensed in each tube, then 10× compound stock solutions or vehicle control (DMSO), were added to each reaction tube.
(§7) Reaction was started with E. Coli (2 U/reaction) or S. aureus (1 U/reaction) gyrase enzyme addition.
(§8) A sample added with an equal volume of dilution buffer was used as negative control (without enzyme).
(§9) The reaction tubes were gentle vortexed and incubated 30 minutes at 37° C. Each reaction was stopped by adding 30 μl of Stop Buffer and 30 μl chloroform/isoamyl alcohol (24/1), briefly vortexed for 5-10 seconds and centrifuged at 20000×g for 2 minutes. Samples were loaded onto 1% agarose gel and subjected to electrophoresis for 1 hour at 80V constant voltage in TAE (40 mM Tris-acetate, 2 mM EDTA).
(§10) Data acquisition and analysis. Treatment of relaxed pBR322 with DNA gyrase converted the relaxed topoisomers (DNAs of different linking number) to the supercoiled form of the plasmid, which migrates faster on an agarose gel. An upper band might also be visible, which consists of open-circular (nicked) DNA which is present in the relaxed substrate but co-migrates with some of the relaxed topoisomers.
(§11) Bands were visualized by ethidium bromide staining (dil 1:20000) for 30 minutes followed by destaining in distilled water for 10 minutes.
(§12) In order to evaluate the compounds activity on the enzyme, the bands of supercoiled DNAs in the gel were photographed by a digital imaging system ImageQuant LAS 4000 (GE Healthcare) according to manufacturer's instructions.
(§13) The fluorescent intensity of each band was analysed by ImageQuant TL software and it was expressed as volume (volume of the uncalibrated quantity of material in the image feature after subtraction of the background intensity by using rolling ball method).
(§14) Each band intensity was compared, as percentage, to vehicle sample band intensity, which served as positive control, on the same gel.
(§15) Inhibitory activity was expressed as percent of inhibition versus the positive control.

Topoisomerase IV [2] = target: T2, Topoisomerase IV (Escherichia coli, UniProt P0AFI2+P20083); assay: Topoisomerase IV decatenation assay (E. coli)
T2 construct: purchased Inspiralis, UK
Experimental: as §1, §2, §3, §4
(§16) Topoisomerase IV Decatenation Assay
(§17) S. aureus and E. coli Topoisomerase IV decatenation kits (Inspiralis, UK) were used. A master mix with a total volume sufficient for the number of reactions to perform was prepared with the following reagents: 5× assay buffer (50 mM HEPES-KOH (pH 7.6), 100 mM potassium glutamate, 10 mM magnesium acetate, 10 mM DTT, 1 mM ATP, 50 μg/ml albumin), kDNA substrate (200 ng/reaction), RNase-DNase free water. Aliquots of this mix were dispensed in each tube, then 10× compound stock solutions or vehicle control (DMSO), were added in each reaction tube.
(§18) Reaction was started with Topoisomerase IV enzyme (0.5 U/reaction) addition.
as §8
(§19) The reaction tubes were gentle vortexed and incubated 30 minutes at 37° C. Each reaction was stopped by adding 30 μl of Stop Buffer and 30 μl of chloroform/isoamyl alcohol (24/1), briefly vortexed for 5-10 seconds and centrifuged at 20000×g for 2 minutes. Samples taken from the upper phase were loaded into 1% agarose gel and subjected to electrophoresis for 1 hour at 80V constant voltage in TAE (40 mM Tris-acetate, 2 mM EDTA).
(§20) Data acquisition and analysis. Due to the high molecular mass, kDNA could not enter an agarose gel under normal electrophoresis conditions, but remained in the wells. In the presence of Topo IV topoisomerase mini-circles (2.5 Kb) were released from kDNA by decatenation and were quickly and easily resolved in the gel at relatively high voltages.
as §11
(§21) For single concentration screening assay, in order to evaluate the compounds activity on the enzymes, the bands of decatenated DNAs in the gel were photographed by a digital imaging system ImageQuant LAS 4000 (GE Healthcare) according to manufacturer's instructions.
(§22) The fluorescent intensity of each band was analyzed by ImageQuant TL software and it was expressed as volume (volume of the uncalibrated quantity of material in the image feature after subtraction of the background intensity by using rolling ball method).
as §14, §15

DNA gyrase [3] = target: T3, DNA gyrase (Staphylococcus aureus, UniProt P0A0K8+P20831); assay: DNA gyrase supercoiling assay (S. aureus)
T3 construct: purchased Inspiralis, UK
Experimental: as §1, §2, §3, §4, §5, §6, §7, §8, §9, §10, §11, §12, §13, §14, §15

Topoisomerase IV [4] = target: T4, Topoisomerase IV (Staphylococcus aureus, UniProt P0C1S7+P0C1U9); assay: Topoisomerase IV decatenation assay (S. aureus)
T4 construct: purchased Inspiralis, UK
Experimental: as §1, §2, §3, §4, §16, §17, §18, §8, §19, §20, §11, §21, §22, §14, §15

T3 sequence (P20831 whole entry): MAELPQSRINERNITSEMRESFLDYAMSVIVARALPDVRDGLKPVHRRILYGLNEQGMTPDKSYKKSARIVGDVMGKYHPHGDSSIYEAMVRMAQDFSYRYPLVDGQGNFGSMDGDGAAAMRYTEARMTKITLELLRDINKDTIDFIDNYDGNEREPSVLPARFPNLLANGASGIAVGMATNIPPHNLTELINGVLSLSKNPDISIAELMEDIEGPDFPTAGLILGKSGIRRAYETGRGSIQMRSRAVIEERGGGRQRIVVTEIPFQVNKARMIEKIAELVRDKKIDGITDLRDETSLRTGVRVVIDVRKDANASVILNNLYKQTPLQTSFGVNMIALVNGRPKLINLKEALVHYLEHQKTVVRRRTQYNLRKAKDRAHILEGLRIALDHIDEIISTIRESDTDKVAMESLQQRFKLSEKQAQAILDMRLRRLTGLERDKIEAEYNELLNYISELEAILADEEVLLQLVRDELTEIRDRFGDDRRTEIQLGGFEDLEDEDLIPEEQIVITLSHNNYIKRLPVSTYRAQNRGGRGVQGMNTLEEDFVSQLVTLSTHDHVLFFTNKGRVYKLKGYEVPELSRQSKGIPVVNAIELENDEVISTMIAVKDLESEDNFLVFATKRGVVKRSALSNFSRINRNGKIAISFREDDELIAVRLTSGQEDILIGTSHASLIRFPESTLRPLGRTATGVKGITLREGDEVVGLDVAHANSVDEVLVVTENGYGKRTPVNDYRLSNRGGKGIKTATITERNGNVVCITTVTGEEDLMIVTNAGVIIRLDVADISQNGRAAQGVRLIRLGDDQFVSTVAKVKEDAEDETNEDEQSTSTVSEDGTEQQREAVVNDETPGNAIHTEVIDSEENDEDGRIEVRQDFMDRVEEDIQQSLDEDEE
T3 sequence (P0A0K8 whole entry): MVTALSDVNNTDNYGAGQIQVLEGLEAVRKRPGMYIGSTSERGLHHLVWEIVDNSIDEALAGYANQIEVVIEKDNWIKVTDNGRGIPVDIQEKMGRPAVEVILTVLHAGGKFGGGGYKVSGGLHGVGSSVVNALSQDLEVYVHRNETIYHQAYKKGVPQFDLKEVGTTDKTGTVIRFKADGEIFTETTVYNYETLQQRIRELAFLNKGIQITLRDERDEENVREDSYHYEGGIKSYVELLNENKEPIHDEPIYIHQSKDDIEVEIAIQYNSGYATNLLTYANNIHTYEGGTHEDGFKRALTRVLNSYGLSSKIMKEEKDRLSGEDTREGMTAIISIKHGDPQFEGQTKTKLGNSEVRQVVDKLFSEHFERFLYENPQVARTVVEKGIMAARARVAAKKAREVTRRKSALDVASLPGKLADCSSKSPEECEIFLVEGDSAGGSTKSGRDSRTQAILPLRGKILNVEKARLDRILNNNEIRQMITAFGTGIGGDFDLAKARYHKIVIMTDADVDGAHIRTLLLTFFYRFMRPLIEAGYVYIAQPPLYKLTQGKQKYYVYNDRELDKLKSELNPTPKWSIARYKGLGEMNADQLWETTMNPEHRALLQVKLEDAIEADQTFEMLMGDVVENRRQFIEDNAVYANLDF
T1 sequence (P0AES4 whole entry, one chain of several): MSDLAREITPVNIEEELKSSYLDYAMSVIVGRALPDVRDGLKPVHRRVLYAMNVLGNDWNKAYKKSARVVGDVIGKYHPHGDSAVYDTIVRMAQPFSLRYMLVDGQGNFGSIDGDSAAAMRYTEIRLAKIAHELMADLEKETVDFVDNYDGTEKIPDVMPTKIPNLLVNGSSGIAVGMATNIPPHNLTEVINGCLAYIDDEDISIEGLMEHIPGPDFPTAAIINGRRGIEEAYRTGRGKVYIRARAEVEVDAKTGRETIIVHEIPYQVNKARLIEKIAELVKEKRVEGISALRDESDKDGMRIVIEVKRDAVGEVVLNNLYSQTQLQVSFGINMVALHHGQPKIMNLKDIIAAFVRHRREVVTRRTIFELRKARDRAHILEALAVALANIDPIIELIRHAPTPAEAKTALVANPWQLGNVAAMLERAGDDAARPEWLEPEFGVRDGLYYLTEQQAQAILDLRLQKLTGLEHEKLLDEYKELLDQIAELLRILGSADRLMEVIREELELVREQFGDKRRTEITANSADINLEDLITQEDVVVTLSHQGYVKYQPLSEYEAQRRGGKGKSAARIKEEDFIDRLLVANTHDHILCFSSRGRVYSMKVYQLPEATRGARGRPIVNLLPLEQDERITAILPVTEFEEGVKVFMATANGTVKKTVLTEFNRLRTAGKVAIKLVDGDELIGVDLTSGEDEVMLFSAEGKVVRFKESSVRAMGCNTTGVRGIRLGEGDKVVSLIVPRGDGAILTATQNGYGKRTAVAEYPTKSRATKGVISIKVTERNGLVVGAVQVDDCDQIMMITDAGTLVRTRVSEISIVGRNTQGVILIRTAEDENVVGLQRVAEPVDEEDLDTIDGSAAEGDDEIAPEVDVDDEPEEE
T4 sequence (P0C1S7 whole entry): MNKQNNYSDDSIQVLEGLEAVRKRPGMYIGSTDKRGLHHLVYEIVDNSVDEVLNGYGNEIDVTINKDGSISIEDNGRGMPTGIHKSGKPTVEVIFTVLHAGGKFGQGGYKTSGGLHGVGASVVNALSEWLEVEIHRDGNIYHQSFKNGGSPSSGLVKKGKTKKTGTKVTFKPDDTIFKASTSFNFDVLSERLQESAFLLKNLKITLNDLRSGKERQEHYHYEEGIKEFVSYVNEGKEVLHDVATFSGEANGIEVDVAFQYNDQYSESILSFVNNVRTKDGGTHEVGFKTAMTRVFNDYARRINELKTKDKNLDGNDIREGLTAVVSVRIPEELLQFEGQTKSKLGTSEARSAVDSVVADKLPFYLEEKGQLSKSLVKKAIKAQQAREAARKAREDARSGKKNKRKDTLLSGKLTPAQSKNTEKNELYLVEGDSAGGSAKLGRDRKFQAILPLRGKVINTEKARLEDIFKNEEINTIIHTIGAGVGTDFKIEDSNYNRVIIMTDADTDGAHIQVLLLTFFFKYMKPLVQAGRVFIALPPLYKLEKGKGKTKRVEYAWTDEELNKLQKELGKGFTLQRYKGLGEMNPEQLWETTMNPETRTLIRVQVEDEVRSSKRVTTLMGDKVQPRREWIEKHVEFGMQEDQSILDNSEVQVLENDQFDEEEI
T4 sequence (P0C1U9 whole entry): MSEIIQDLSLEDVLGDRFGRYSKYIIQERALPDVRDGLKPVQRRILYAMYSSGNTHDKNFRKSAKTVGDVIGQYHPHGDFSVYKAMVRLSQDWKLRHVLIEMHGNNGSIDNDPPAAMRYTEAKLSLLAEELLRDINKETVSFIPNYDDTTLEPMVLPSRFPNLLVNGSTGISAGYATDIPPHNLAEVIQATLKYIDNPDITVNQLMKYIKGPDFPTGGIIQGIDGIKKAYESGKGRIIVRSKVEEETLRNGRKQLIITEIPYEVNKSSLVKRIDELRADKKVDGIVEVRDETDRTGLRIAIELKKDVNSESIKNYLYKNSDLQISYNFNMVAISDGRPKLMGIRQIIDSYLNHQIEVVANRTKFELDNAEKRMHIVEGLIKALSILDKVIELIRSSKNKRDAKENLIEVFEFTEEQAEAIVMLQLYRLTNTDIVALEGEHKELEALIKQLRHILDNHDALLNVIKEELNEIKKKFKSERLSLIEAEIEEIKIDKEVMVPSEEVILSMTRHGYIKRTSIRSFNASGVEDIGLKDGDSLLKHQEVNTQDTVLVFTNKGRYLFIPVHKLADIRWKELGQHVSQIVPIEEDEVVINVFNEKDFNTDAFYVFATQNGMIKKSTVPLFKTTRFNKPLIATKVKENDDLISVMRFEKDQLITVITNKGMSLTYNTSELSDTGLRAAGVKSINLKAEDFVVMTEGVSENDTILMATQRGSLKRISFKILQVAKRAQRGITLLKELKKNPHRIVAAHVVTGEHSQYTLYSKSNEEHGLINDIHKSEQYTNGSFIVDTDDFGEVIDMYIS

SMILES | % inhibition DNA gyrase (DNA gyrase [1]) | % inhibition Topo IV (Topoisomerase IV [2]) | % inhibition DNA gyrase (DNA gyrase [3]) | % inhibition Topo IV (Topoisomerase IV [4])
O=c1cc(NC[C@H](O)[C@@H](O)C2CCN(c3nccc4ccc(F)cc34)CC2)c2ccccc2o1 (racemic) [Compound 128, (2S,3S) and (2R,3R) 4-({3-[1-(7-fluoroisoquinolin-1-yl)piperidin-4-yl]-2,3-dihydroxypropyl}amino)-2H-chromen-2-one hydrochloride] | n/a (n/a = not active) | n/a (n/a = not active) | 66% | n/a (n/a = not active)
O=c1cc(NC[C@@H](O)[C@@H](O)C2CCN(c3nccc4ccc(F)cc34)CC2)c2ccccc2o1 (racemic) [Compound 129, (2R,3S) and (2S,3R) 4-({3-[1-(7-fluoroisoquinolin-1-yl)piperidin-4-yl]-2,3-dihydroxypropyl}amino)-2H-chromen-2-one hydrochloride] | 69% | n/a (n/a = not active) | n/a (n/a = not active) | n/a (n/a = not active)
O=C(NCCCN1CCN(c2nccc3ccccc23)CC1)c1cccnc1 [Compound 2, N-{3-[4-(isoquinolin-1-yl)piperazin-1-yl]propyl}pyridine-3-carboxamide hydrochloride] | n/a (n/a = not active) | 65% | n/a (n/a = not active) | n/a (n/a = not active)
O=C(NCCCN1CCN(c2nccc3ccccc23)CC1)c1ccccc1 [Compound 3, N-{3-[4-(isoquinolin-1-yl)piperazin-1-yl]propyl}benzamide hydrochloride] | 59% | n/a (n/a = not active) | n/a (n/a = not active) | n/a (n/a = not active)
O=c1cc(NCCCN2CCN(c3nccc4ccccc34)CC2)c2ccccc2[nH]1 [Compound 58, 4,4-({3-[4-(isoquinolin-1-yl)piperazin-1-yl]propyl}amino)quinolin-2(1H)-one hydrochloride] | 100% | n/a (n/a = not active) | n/a (n/a = not active) | –
O=C(CN1CCC(Nc2cc(=O)oc3ccccc23)CC1)Nc1nccc2ccccc12 [Compound 117, N-(isoquinolin-1-yl)-2-{4-[(2-oxo-2H-chromen-4-yl)amino]piperidin-1-yl}acetamide] | 75% | n/a (n/a = not active) | n/a (n/a = not active) | –
c1ccc2sc(CNCCCN3CCN(c4nccc5ccccc45)CC3)cc2c1 [Compound 119, N-(1-benzothiophen-2-ylmethyl)-3-[4-(isoquinolin-1-yl)piperazin-1-yl]propan-1-amine] | n/a (n/a = not active) | n/a (n/a = not active) | 60% | –
c1ccc2c(N3CCN(CCCNCc4ccc5c(c4)OCO5)CC3)nccc2c1 [Compound 120, N-(1,3-benzodioxol-5-ylmethyl)-3-[4-(isoquinolin-1-yl)piperazin-1-yl]propan-1-amine] | n/a (n/a = not active) | n/a (n/a = not active) | 76% | –
c1ccc2c(N3CCN(CCNCc4ccc5c(c4)OCO5)CC3)nccc2c1 [Compound 130, N-(1,3-benzodioxol-5-ylmethyl)-2-[4-(isoquinolin-1-yl)piperazin-1-yl]ethanamine] | n/a (n/a = not active) | n/a (n/a = not active) | 74% | –
O=C(O)CC(NC[C@@H](O)CN1CCN(c2nccc3ccc(F)cc23)CC1)C1CCCCC1 (stereo partly drawn) [Compound 136, 3-cyclohexyl-3-({(2R)-3-[4-(7-fluoroisoquinolin-1-yl)piperazin-1-yl]-2-hydroxypropyl}amino)propanoic acid] | 57% | n/a (n/a = not active) | 75% | –
O=C(O)CC(NC[C@H](O)CN1CCN(c2nccc3ccc(F)cc23)CC1)C1CCCCC1 (stereo partly drawn) [Compound 137, 3-cyclohexyl-3-({(2S)-3-[4-(7-fluoroisoquinolin-1-yl)piperazin-1-yl]-2-hydroxypropyl}amino)propanoic acid] | 57% | n/a (n/a = not active) | 75% | –
O=C(O)[C@@H](NC[C@H](O)CN1CCN(c2nccc3ccc(F)cc23)CC1)C1CCCCC1 [Compound 138, (2S)-cyclohexyl({(2S)-3-[4-(7-fluoroisoquinolin-1-yl)piperazin-1-yl]-2-hydroxypropyl}amino)acetic acid] | n/a (n/a = not active) | n/a (n/a = not active) | 89% | –
O=C(O)[C@H](NC[C@@H](O)CN1CCN(c2nccc3ccc(F)cc23)CC1)C1CCCCC1 [Compound 139, (2R)-cyclohexyl({(2R)-3-[4-(7-fluoroisoquinolin-1-yl)piperazin-1-yl]-2-hydroxypropyl}amino)acetic acid] | n/a (n/a = not active) | n/a (n/a = not active) | 54% | –
O=C(O)[C@@H](NC[C@@H](O)CN1CCN(c2nccc3ccc(F)cc23)CC1)C1CCCCC1 [Compound 140, (2S)-cyclohexyl({(2R)-3-[4-(7-fluoroisoquinolin-1-yl)piperazin-1-yl]-2-hydroxypropyl}amino)acetic acid] | 68% | n/a (n/a = not active) | 92% | –
OCCC(NCCNC1CCN(c2nccc3ccc(F)cc23)CC1)C1CCCCC1 (stereo not shown) [Compound 167, 3-cyclohexyl-3-[(2-{[1-(7-fluoroisoquinolin-1-yl)piperidin-4-yl]amino}ethyl)amino]propan-1-ol] | n/a (n/a = not active) | n/a (n/a = not active) | 70% | –
COC(=O)CC(NCCNC1CCN(c2nccc3ccc(F)cc23)CC1)C1CCCCC1 (stereo not shown) [Compound 189, methyl 3-cyclohexyl-3-[(2-{[1-(7-fluoroisoquinolin-1-yl)piperidin-4-yl]amino}ethyl)amino]propanoate] | n/a (n/a = not active) | n/a (n/a = not active) | 84% | –
O=C(CC(NCCNC1CCN(c2nccc3ccc(F)cc23)CC1)C1CCCCC1)NO (stereo not shown) [Compound 191, 3-cyclohexyl-3-[(2-{[1-(7-fluoroisoquinolin-1-yl)piperidin-4-yl]amino}ethyl)amino]-N-hydroxypropanamide] | n/a (n/a = not active) | n/a (n/a = not active) | 81% | –
